Test results as given in publication PMC11352099 (RSC Medicinal Chemistry, 2024).
Like-named read-outs stand apart in the source and are kept apart here.

Columns and labels:
SARS-CoV-2 nsp14 MTase = SARS-CoV-2 nsp14 MTase (Severe acute respiratory syndrome coronavirus 2, UniProt P0DTD1); test: biochemical; format: biochemical; conditions: for Hill slope: Table S1, dose-response curve, variable slope model
in vitro [1] = conditions: human; for efflux ratio at 2 h, 10 µM: Caco-2; for Papp A→B at 2 h, 10 µM / Papp B→A at 2 h, 10 µM: Caco-2, pH 7.4
Method: (§1) 3.5. Caco-2 permeability assay
(§2) Transepithelial bi-directional transport of compounds (10 µM, pH 7.4/7.4) was tested on 21-day differentiated Caco-2 monolayers. Briefly, the cells were seeded at a density of 67 ,500 cells per 96-well plate insert (Millicell®, Merck KGaA, Darmstadt, Germany). They were left to differentiate for 21 days with medium exchange every 2–3 days. Prior to the experiment, the medium from both apical and basolateral well was exchanged for HBSS buffer (containing 10 mM HEPES and 25 mM glucose) and left to equilibrate for 30 min. Compound permeability was assayed by replacing pure HBSS with HBSS containing 10 μM compounds and 220 μM Lucifer yellow (LY) solution in an apical insert (A to B transport) or in a basolateral well (B to A transport). The tre ated cells were then returned to the incubator for 2 h at 37 °C. After that, samples were collected from both apical inserts and basolateral wells and analyzed using LC -MS/MS (SCIEX Triple Quad™ 7500 QTRAP® Ready). LC separation was done on Synergi 4µm Fusion 50 × 2 mm column (Phenomenex) using a water/acetonitrile gradient with 0.1% formic acid starting from 2 to 98% for 4.5 min.
(§3) The apparent permeability coefficient (Papp) was calculated from t he following equation: Papp = (dQ / dt) / C0 * A, where dQ/dt is the rate of absorption of the drug across the cells, C0 is the donor compartment concentration at time zero, and A is the area of the monolayer. Efflux ratio was expressed as (Papp B -A) / (Papp A-B). Recovery (%) was determined as (total compound mass i n donor and receiver compartments at the end of the incubation / initial compound mass in the donor compartment) x 100. The data represent means ± SD of two independent experiments performed in triplicate. […]
(§4) were used as control compounds.

Caco-2 monolayers = test: in vitro; conditions: Caco-2
Method: as §1, §2, §3, §4

[2] = for Plasma stability % of the parent compound after 120 min, Human: 10 μM
[3] = for Plasma stability % of the parent compound after 120 min, Mouse: 10 μM
[4] = microsomes, 0.75 h, 10 µM, pH 7.4
[5] = microsomes, 0.75 h, 10 µM, pH 7.4; remark: listed apart in the source
human RNMT = human RNMT (Homo sapiens, UniProt O43148); test: Off-target inhibition of human RNMT; format: biochemical; conditions: for inhibitory activity against RNMT: 25 μM concentration of inhibitor
Sequence of human RNMT (O43148 whole entry): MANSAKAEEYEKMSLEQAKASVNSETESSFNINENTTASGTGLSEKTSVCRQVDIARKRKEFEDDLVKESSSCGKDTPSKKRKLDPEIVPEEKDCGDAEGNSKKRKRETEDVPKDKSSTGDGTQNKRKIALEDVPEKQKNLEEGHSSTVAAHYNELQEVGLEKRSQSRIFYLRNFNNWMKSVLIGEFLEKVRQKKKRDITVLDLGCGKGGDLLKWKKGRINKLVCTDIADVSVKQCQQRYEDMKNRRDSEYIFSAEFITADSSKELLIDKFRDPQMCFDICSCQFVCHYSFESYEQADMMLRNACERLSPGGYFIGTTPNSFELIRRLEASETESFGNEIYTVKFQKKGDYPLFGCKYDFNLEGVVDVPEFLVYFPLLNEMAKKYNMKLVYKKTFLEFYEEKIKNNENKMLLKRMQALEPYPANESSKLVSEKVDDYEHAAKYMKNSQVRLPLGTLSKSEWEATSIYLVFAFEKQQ
From the text: Human cells rely on several MTases; therefore, it is necessary to assess the possible off-target effect. […]

[6] = system: SARS-CoV-2 strain hCoV-19/Czech Republic/NRL_6632_2/2020; test: microbe, parasite or virus in culture; format: cell-based; conditions: Calu-3 cell line, read-out: EC50 (antiviral effect)
in vitro [7] = conditions: human
[8] = Table 1 and text, N.I., no inhibition, read-out: IC50
[9] = Table S1, read-out: IC50 (inhibitory activity)
[10] = Severe acute respiratory syndrome coronavirus 2
[11] = Table 1 and text, N.I., no inhibition

Row | Compound | IC50 (SARS-CoV-2 nsp14 MTase; [8]) | Hill slope (SARS-CoV-2 nsp14 MTase) | IC50 (SARS-CoV-2 nsp14 MTase; [9]) | recovery at 2 h, 10 µM (in vitro [1]; Caco-2, Recovery (%) A-B) | Papp B→A at 2 h, 10 µM (in vitro [1]) | Papp B-A (Caco-2 monolayers) | Plasma stability % of the parent compound after 120 min, Human [2] | Plasma stability % of the parent compound after 120 min, Mouse [3] | Microsomal stability % of the parent compound after 45 min, Human [4] | Microsomal stability % of the parent compound after 45 min, Mouse [5] | inhibitory activity against nsp14 (in words) (SARS-CoV-2 nsp14 MTase) | further results
1 | Nc1ncnc2c1ncn2[C@@H]1O[C@H](C(=O)Nc2ccc3c(C(F)(F)F)cc(=O)oc3c2)[C@@H](O)[C@H]1O [12m] | 1.47 ± 0.14 µM | -1.01 | 1.47 µM | 96% | 32.9 ± 5.3 ×10⁻⁶ cm/s | 32.9 ± 5.3 cm/s x 10-6 | 20 ± 1.4% | 67 ± 3.5% | 90 ± 9.1% | 93 ± 9.4% |  | efflux ratio at 2 h, 10 µM (in vitro [1]): 4.1; recovery at 2 h, 10 µM (in vitro [1]; Caco-2, Recovery (%) B-A): 130%; Papp A→B at 2 h, 10 µM (in vitro [1]): 8 ± 2.9 ×10⁻⁶ cm/s; Papp A-B (Caco-2 monolayers): 8.0 ± 2.9 cm/s x 10-6; stability in human plasma (in words) ([2]; plasma): unstable; stability in mouse plasma (in words) ([3]; plasma): unstable
2 | Cc1cc(=O)[nH]c2cc(NC(=O)[C@H]3O[C@@H](n4cnc5c(N)ncnc54)[C@H](O)[C@@H]3O)ccc12 [12n] | 0.35 ± 0.04 µM | -1.19 |  | 79% | 2.2 ± 0.4 ×10⁻⁶ cm/s | 2.2 ± 0.4 cm/s x 10-6 | 97 ± 2.0% | 78 ± 0.3% | 95 ± 0.0% | 90 ± 2.9% |  | inhibitory activity against RNMT (human RNMT): None of the tested compounds exhibited any inhibitory activity; efflux ratio at 2 h, 10 µM (in vitro [1]): 0.5; recovery at 2 h, 10 µM (in vitro [1]; Caco-2, Recovery (%) B-A): 87%; Papp A→B at 2 h, 10 µM (in vitro [1]): 4.4 ± 1.8 ×10⁻⁶ cm/s; Papp A-B (Caco-2 monolayers): 4.4 ± 1.8 cm/s x 10-6; EC50 [6, 10]: > 50 µM
3 | Nc1ncnc2c1ncn2[C@@H]1O[C@H](C(=O)Nc2ccc3c(c2)NC(=O)CC3)[C@@H](O)[C@H]1O [12o] | 6.55 ± 1.44 µM | -0.91 | 6.55 µM |  |  |  |  |  |  |  |  | 
4 | Nc1ncnc2c1ncn2[C@@H]1O[C@H](C(=O)Nc2ccc3cccnc3c2)[C@@H](O)[C@H]1O [12p] | 4.81 ± 2.54 µM | -1.45 | 4.81 µM |  |  |  |  |  |  |  |  | 
5 | Cc1cc(=O)oc2cc(NC(=O)[C@H]3O[C@@H](n4cc(C#Cc5cncnc5)c5c(N)ncnc54)[C@H](O)[C@@H]3O)ccc12 [18l] | 0.031 ± 0.005 µM | -1.09 |  | 87% | 8.3 ± 0.5 ×10⁻⁶ cm/s | 8.3 ± 0.5 cm/s x 10-6 | 74 ± 0.2% | 89 ± 1.1% | 90 ± 4.2% | 84 ± 2.5% |  | IC50 (human RNMT): > 25 µM; inhibitory activity against RNMT (human RNMT): None of the tested compounds exhibited any inhibitory activity; EC50 ([6]; Severe acute respiratory syndrome coronavirus 2, 72 h, MOI ∼0.01, 3 days): 12 ± 6 µM; CC50 at 3 days (in vitro [7]): > 50 µM
6 | Cc1cc(=O)[nH]c2cc(N(C)C(=O)[C@H]3O[C@@H](n4cc(C#Cc5cncnc5)c5c(N)ncnc54)[C@H](O)[C@@H]3O)ccc12 [18q] | 0.89 ± 0.12 µM | -1.02 | 0.891 µM | 89% | 2.1 ± 0.4 ×10⁻⁶ cm/s | 2.1 ± 0.4 cm/s x 10-6 | 80 ± 1.1% | 86 ± 0.9% | 107 ± 6.6% | 117 ± 10.9% |  | inhibitory activity against RNMT (human RNMT): None of the tested compounds exhibited any inhibitory activity; efflux ratio at 2 h, 10 µM (in vitro [1]): 1; recovery at 2 h, 10 µM (in vitro [1]; Caco-2, Recovery (%) B-A): 101%; Papp A→B at 2 h, 10 µM (in vitro [1]): 2 ± 0.3 ×10⁻⁶ cm/s; Papp A-B (Caco-2 monolayers): 2.0 ± 0.3 cm/s x 10-6; EC50 [6, 10]: > 50 µM
7 | COC(=O)c1ccc(C(=O)NC[C@H]2O[C@@H](n3cnc4c(N)ncnc43)[C@H](O)[C@@H]2O)cc1 [21a] |  |  |  |  |  |  |  |  |  |  | significant decrease or complete loss of the inhibitory activity | IC50 (SARS-CoV-2 nsp14 MTase; [11]): N.I.
8 | Nc1ncnc2c1ncn2[C@@H]1O[C@H](CNC(=O)c2ccc3c(c2)OCCO3)[C@@H](O)[C@H]1O [21k] |  |  |  |  |  |  |  |  |  |  | significant decrease or complete loss of the inhibitory activity | IC50 (SARS-CoV-2 nsp14 MTase; [11]): N.I.
9 | Nc1ncnc2c1ncn2[C@@H]1O[C@H](CNS(=O)(=O)c2ccc3c(c2)OCCO3)[C@@H](O)[C@H]1O [22k] | 15.3 ± 2.55 µM | -1.55 |  |  |  |  |  |  |  |  | significant decrease or complete loss of the inhibitory activity | 
10 | C[C@H]1O[C@@H](O[C@H]2[C@@H](O)C[C@H](O[C@H]3[C@@H](O)C[C@H](O[C@H]4CC[C@@]5(C)[C@H](CC[C@@H]6[C@@H]5C[C@@H](O)[C@]5(C)[C@@H](C7=CC(=O)OC7)CC[C@]65O)C4)O[C@@H]3C)O[C@@H]2C)C[C@H](O)[C@@H]1O [Digoxin, reference compound] |  |  |  |  |  |  |  |  |  |  |  | recovery at 2 h, 10 µM (in vitro [1]; Caco-2, Recovery (%) A-B, Table S2, A to B transport): 131%; recovery at 2 h, 10 µM (in vitro [1]; Caco-2, Recovery (%) B-A, Table S2, B to A transport): 77%
11 | Cc1cc(=O)oc2cc(SC[C@H]3O[C@@H](n4cnc5c(N)ncnc54)[C@H](O)[C@@H]3O)ccc12 [compound 24] | 3.67 ± 0.4 µM | -1.04 | 3.67 µM |  |  |  |  |  |  |  | significant decrease or complete loss of the inhibitory activity | 
12 | Cc1cc(=O)oc2cc(S(=O)(=O)C[C@H]3O[C@@H](n4cnc5c(N)ncnc54)[C@H](O)[C@@H]3O)ccc12 [compound 25] | > 25 µM |  |  |  |  |  |  |  |  |  | significant decrease or complete loss of the inhibitory activity | 
